Test results from PubChem BioAssay AID208 (DTP/NCI, 2004).
Several values for one entry are separate records, joined by “and”; a condition that tells them apart may be missing. Equal entries are not always repeated. Inconclusive results are not listed.

System: HT29 intrarenal xenograft, nude mice, tumor weight change
Assay: NCI In Vivo Anticancer Drug Screen. Data for tumor model HT29;CX-1 Human Adenocarcinoma (MER+) (intrarenal inoculation) in NU/NU BALB/C (nude) mice
Settings: endpoint: mean tumor weight change, higher = larger tumour
Description: The antitumor activity of compounds was measured in mice bearing transplantable tumors. Survival or tumor size were measured and the results are expressed as the measurement made in the treated group (T) divided by the measurement made in the vehicle treated control group (C). The tumor model used in this assay is HT29;CX-1 Human Adenocarcinoma (MER+) (intrarenal inoculation) in NU/NU BALB/C (nude) mice

[1] = dose: 600.0 mg/kg/injection, schedule: Q04DX004 (sc), vehicle: saline with Tween-80
[2] = dose: 25.0 mg/kg/injection, schedule: Q04DX004 (sc), vehicle: Klucel (hydroxypropylcellulose) (HPC)
[3] = dose: 50.0 mg/kg/injection, schedule: Q04DX004 (sc), vehicle: Klucel (hydroxypropylcellulose) (HPC)

Compound: O=NN(CCCl)C(=O)NC1OC(CO)C(O)C(O)C1O (centres undefined)
- T/C (dose: 5.0 mg/kg/injection, schedule: Q04DX004 (sc), vehicle: saline): 75 % of control
- T/C (dose: 10.0 mg/kg/injection, schedule: Q04DX004 (sc), vehicle: saline): 76 % of control
- T/C (dose: 20.0 mg/kg/injection, schedule: Q04DX004 (sc), vehicle: saline): 57 % of control

Compound: O=C(CCCN1CCC(C(O)c2ccc(F)cc2)CC1)c1ccc(F)cc1 (centres undefined)
- T/C (dose: 12.5 mg/kg/injection, schedule: Q04DX004 (ip), vehicle: saline with Tween-80): 52 % of control
- T/C (dose: 25.0 mg/kg/injection, schedule: Q04DX004 (ip), vehicle: saline with Tween-80): 71 % of control
- T/C (dose: 50.0 mg/kg/injection, schedule: Q04DX004 (ip), vehicle: saline with Tween-80): 106 % of control
- T/C (dose: 100.0 mg/kg/injection, schedule: Q04DX004 (ip), vehicle: saline with Tween-80): 43 % of control

Compound: c1ccc2c(c1)[As]=c1ccccc1=[As]2 (centres undefined)
- T/C (dose: 9.38 mg/kg/injection, schedule: Q04DX004 (sc), vehicle: saline): 113 % of control
- T/C (dose: 18.72 mg/kg/injection, schedule: Q04DX004 (sc), vehicle: saline): 86 % of control
- T/C (dose: 37.5 mg/kg/injection, schedule: Q04DX004 (sc), vehicle: saline): 107 % of control
- T/C (dose: 75.0 mg/kg/injection, schedule: Q04DX004 (sc), vehicle: saline): 70 % of control

Compound: Nc1nc(N)c(N=O)c(Nc2ccc(Br)cc2)n1
- T/C (dose: 150.0 mg/kg/injection, schedule: Q04DX004 (sc), vehicle: saline with Tween-80): 106 % of control
- T/C (dose: 300.0 mg/kg/injection, schedule: Q04DX004 (sc), vehicle: saline with Tween-80): 83 % of control
- T/C [1]: 120 % of control
- T/C (dose: 1200.0 mg/kg/injection, schedule: Q04DX004 (sc), vehicle: saline with Tween-80): 115 % of control

Compound: O=C(O)CC(=O)O.[NH-]C1CCCCC1[NH-].[Pt+2] (centres undefined)
- T/C (dose: 10.0 mg/kg/injection, schedule: Q01DX010 (sc), vehicle: dextrose): 64 % of control
- T/C (dose: 20.0 mg/kg/injection, schedule: Q01DX010 (sc), vehicle: dextrose): 40 % of control
- T/C (dose: 40.0 mg/kg/injection, schedule: Q01DX010 (sc), vehicle: dextrose): 7 % of control

Compound: CCC1=C[C@H]2CN(CCc3c([nH]c4ccccc34)[C@@](C(=O)OC)(c3cc4c(cc3OC)N(C)[C@H]3[C@@](O)(C(=O)OC)[C@H](OC(C)=O)[C@]5(CC)C=CCN6CC[C@]43[C@@H]65)C2)C1
- T/C (dose: 0.38 mg/kg/injection, schedule: Q04DX004 (sc), vehicle: water): 116 % of control
- T/C (dose: 0.75 mg/kg/injection, schedule: Q04DX004 (sc), vehicle: water): 159 % of control
- T/C (dose: 1.5 mg/kg/injection, schedule: Q04DX004 (sc), vehicle: water): 118 % of control
- T/C (dose: 3.0 mg/kg/injection, schedule: Q04DX004 (sc), vehicle: water): 40 % of control
- T/C (dose: 6.0 mg/kg/injection, schedule: Q04DX004 (sc), vehicle: water): 100 % of control
- T/C (dose: 12.0 mg/kg/injection, schedule: Q04DX004 (sc), vehicle: water): 66 % of control

Compound: Nc1nc(=S)c2ncn(C3CC(O)C(CO)O3)c2[nH]1 (centres undefined)
- T/C (dose: 1.88 mg/kg/injection, schedule: Q01DX010 (sc), vehicle: saline with Tween-80): 164 % of control

Compound: CCCCCCCCCCCCCCCCCCOCC(COP(=O)([O-])OCC[N+](C)(C)C)OC (centres undefined)
- T/C (dose: 150.0 mg/kg/injection, schedule: Q04DX004 (sc), vehicle: saline): 121 % of control

Compound: Oc1cccc2ccccc12
- T/C (dose: 150.0 mg/kg/injection, schedule: Q04DX004 (ip), vehicle: water): 63 % of control

Compound: COC1C(C)OC(OC2CC(C)(O)Cc3cc4c(c(O)c32)C(=O)c2c(O)cc3c(c2C4=O)OC2OC3(C)C(O)C(N(C)C)C2O)C(OC)C1(C)OC (centres undefined)
- T/C (dose: 20.0 mg/kg/injection, schedule: Q04DX004 (sc), vehicle: Klucel (hydroxypropylcellulose) (HPC)): 74 % of control
- T/C (dose: 40.0 mg/kg/injection, schedule: Q04DX004 (sc), vehicle: Klucel (hydroxypropylcellulose) (HPC)): 49 % of control

Compound: O=S(=O)(O)O.[NH-]C1CCCCC1[NH-].[Pt+2] (centres undefined)
- T/C (dose: 0.63 mg/kg/injection, schedule: Q01DX010 (sc), vehicle: dextrose): 124 % of control
- T/C (dose: 1.25 mg/kg/injection, schedule: Q01DX010 (sc), vehicle: dextrose): 83 % of control
- T/C (dose: 2.5 mg/kg/injection, schedule: Q01DX010 (sc), vehicle: dextrose): 73 % of control

Compound: COc1cc(C2c3cc4c(cc3C(O)C(CO)C2CO)OCO4)cc(OC)c1OC (centres undefined)
- T/C (dose: 200.0 mg/kg/injection, schedule: Q04DX004 (sc), vehicle: saline with Tween-80): 72 % of control
- T/C (dose: 400.0 mg/kg/injection, schedule: Q04DX004 (sc), vehicle: saline with Tween-80): 49 % of control
- T/C (dose: 800.0 mg/kg/injection, schedule: Q04DX004 (sc), vehicle: saline with Tween-80): 96 % of control
- T/C (dose: 1600.0 mg/kg/injection, schedule: Q04DX004 (sc), vehicle: saline with Tween-80): 30 % of control

Compound: CCCCCCCC(=O)OCC(=O)[C@]1(O)Cc2c(O)c3c(c(O)c2[C@@H](OC2CC(N)C(O)C(C)O2)C1)C(=O)c1c(OC)cccc1C3=O (some centres undefined)
- T/C (dose: 2.0 mg/kg/injection, schedule: Q04DX004 (sc), vehicle: saline): 63 % of control
- T/C (dose: 4.0 mg/kg/injection, schedule: Q04DX004 (sc), vehicle: saline): 78 % of control
- T/C (dose: 8.0 mg/kg/injection, schedule: Q04DX004 (sc), vehicle: saline): 48 % of control
- T/C (dose: 16.0 mg/kg/injection, schedule: Q04DX004 (sc), vehicle: saline): 30 % of control

Compound: Cc1cc2cc3cc(C)c(N)cc3nc2cc1N
- T/C [1]: 115 % of control
- T/C (dose: 2400.0 mg/kg/injection, schedule: Q04DX004 (sc), vehicle: saline with Tween-80): 77 % of control

Compound: CN(C)N=Nc1cccc(C(N)=O)c1
- T/C [2]: 91 % of control
- T/C [3]: 85 % of control
- T/C (dose: 100.0 mg/kg/injection, schedule: Q04DX004 (sc), vehicle: Klucel (hydroxypropylcellulose) (HPC)): 123 % of control

Compound: CS(=O)(=O)c1ncc(Br)cn1
- T/C (dose: 25.0 mg/kg/injection, schedule: Q01DX010 (sc), vehicle: saline with Tween-80): 106 % of control
- T/C (dose: 50.0 mg/kg/injection, schedule: Q01DX010 (sc), vehicle: saline with Tween-80): 123 % of control
- T/C (dose: 100.0 mg/kg/injection, schedule: Q01DX010 (sc), vehicle: saline with Tween-80): 185 % of control

Compound: O=Cc1ccc(C=O)c(Cl)c1
- T/C (dose: 150.0 mg/kg/injection, schedule: Q04DX004 (sc), vehicle: Klucel (hydroxypropylcellulose) (HPC)): 92 % of control
- T/C (dose: 300.0 mg/kg/injection, schedule: Q04DX004 (sc), vehicle: Klucel (hydroxypropylcellulose) (HPC)): 81 % of control
- T/C (dose: 600.0 mg/kg/injection, schedule: Q04DX004 (sc), vehicle: Klucel (hydroxypropylcellulose) (HPC)): 109 % of control
- T/C (dose: 1200.0 mg/kg/injection, schedule: Q04DX004 (sc), vehicle: Klucel (hydroxypropylcellulose) (HPC)): 114 % of control

Compound: CC[As](=O)(O)CC
- T/C (dose: 100.0 mg/kg/injection, schedule: Q04DX004 (sc), vehicle: saline): 61 % of control

Compound: NC1(C(=O)O)CCCC1
- T/C (dose: 50.0 mg/kg/injection, schedule: Q01DX010 (sc), vehicle: saline): 37 % of control and 40 % of control
- T/C (dose: 100.0 mg/kg/injection, schedule: Q01DX010 (sc), vehicle: saline): 12 % of control and 22 % of control

Compound: NCCCNCCSP(=O)(O)O
- T/C (dose: 200.0 mg/kg/injection, schedule: Q04DX004 (sc), vehicle: saline): 102 % of control

Compound: O=S(CCCl)CCCl
- T/C [2]: 98 % of control
- T/C [3]: 64 % of control

Compound: CCNC=O
- T/C (dose: 150.0 mg/kg/injection, schedule: Q01DX010 (ip), vehicle: suspension in saline): 82 % of control
- T/C (dose: 300.0 mg/kg/injection, schedule: Q01DX010 (ip), vehicle: suspension in saline): 42 % of control
- T/C (dose: 600.0 mg/kg/injection, schedule: Q01DX010 (ip), vehicle: suspension in saline): 39 % of control

Compound: CCCNC1=C(C)C(=O)C2=C(C1=O)[C@H](COC(N)=O)[C@]1(OC)[C@@H]3N[C@@H]3CN21
- T/C (dose: 1.5 mg/kg/injection, schedule: Q04DX004 (sc), vehicle: saline): 26 % of control
- T/C (dose: 3.0 mg/kg/injection, schedule: Q04DX004 (sc), vehicle: saline): 91 % of control
- T/C (dose: 6.0 mg/kg/injection, schedule: Q04DX004 (sc), vehicle: saline): 87 % of control and 91 % of control
- T/C (dose: 12.0 mg/kg/injection, schedule: Q04DX004 (sc), vehicle: saline): 5 % of control and 26 % of control

Compound: Cc1cc(NCCCCCCCCNc2cc(C)nc3cc(N(C)C)ccc23)c2ccc(N(C)C)cc2n1
- T/C (dose: 75.0 mg/kg/injection, schedule: Q04DX004 (sc), vehicle: distilled water + Tween-80 + alcohol): 84 % of control
- T/C (dose: 150.0 mg/kg/injection, schedule: Q04DX004 (sc), vehicle: distilled water + Tween-80 + alcohol): 62 % of control
- T/C (dose: 300.0 mg/kg/injection, schedule: Q04DX004 (sc), vehicle: distilled water + Tween-80 + alcohol): 85 % of control
- T/C (dose: 600.0 mg/kg/injection, schedule: Q04DX004 (sc), vehicle: distilled water + Tween-80 + alcohol): 35 % of control
